Results as given in patent publication US20070172957A1, “Methods of identifying anti-inflammatory macrolides” (TAISHO PHARMACEUTICAL CO., LTD., priority 2004, published 2007).

Tested on: A549 cells
Assay: A549 microarray comparing macrolides with arachidonic acid pathway inhibitors, with IL-1β stimulation (Appendix C, Tables 6-9), and correlation analysis
Format: cell-based
Details: for Total # Differential Genes (95% confidence): A549, threshold 1.3; for FADS1 expression: A549 cells, microarray
Description: One inhibitor, triacsin C, acts on AA biosynthesis by inhibiting arachidonyl CoA synthetases, blocking the incorporation of free AA into phospholipids. Triacsin C is reasonably specific for AA compared to other fatty acids. However, triacsin C structurally resembles AA so it also may interfere with other steps in the AA pathway. Indomethacin is an inhibitor of COX1 and COX2 enzyme activities and therefore specifically blocks metabolism of AA into prostaglandins. […] It inhibits transcription of PLA2, and transcriptionally and post-transcriptionally regulates COX1 and COX2 activities. Dexamethasone has additional effects unrelated to AA through binding with the glucocorticoid receptor to glucocortcoid response elements.
A549 cells were pre-incubated overnight (17 hours) with macrolides (10 μM FMA-9045, 50 μM clarithromycin, 50 μM roxithromycin, 50 μM josamycin) and 15 μM triacsin C, and pre-incubated 2 hours with 100 nM indomethacin and 100 nM dexamethasone. All cells then were stimulated for 4 hours with IL-1β, because the activation of PLA2 and downstream signaling events generally requires an inflammatory stimulus. The various treatment conditions are shown below in Table 4. Following macrolide and inhibitor pre-treatment and IL-1 stimulation, the cells were lysed, total RNA was collected, and the poly-A+ mRNA fraction was purified. The resulting microarray data (Appendix C) were analyzed using the methods described in the Examples above.
The tables in Appendix C represent the effects of the arachidonic acid pathway inhibitors (“AA pathway inhibitors”) and the effects of the macrolides (“IL1+macrolide effects”). […] In both tables in Appendix C, the genes that meet this criterion (≧1.3 min fold change) are indicated in bold.
Quantitative analysis was done to determine how well the responses to the different AA pathway inhibitors correlated. The correlation values were assigned a p-value to provide statistical confidence to the correlation value. Correlation between experiments, across all spots showing good detection, was assessed by cosine vector angle to generate the data shown in Tables 7-9. A correlation coefficient close to one indicates strong correlation, whereas a value near zero indicates no correlation. P-values for each correlation coefficient were estimated based on a Fisher permutation test. In this test, each spot's expression ratios were randomly re-ordered across experiments and the degree of correlation between experiments was then reassessed. This was done repeatedly.

[1] = IL1 vs IL1 + drug, macrolides 50 μM (FMA 10 μM), triacsin C 15 μM, indomethacin and dexamethasone 100 nM
[2] = IL1 + Triacsin vs IL1 + Triacsin + macrolide 50 μM
[3] = A549 + IL-1β, of the genes regulated by the labelled drug

## CO[C@@H]1[C@@H](O[C@@H]2O[C@H](C)[C@@H](O[C@H]3C[C@@](C)(O)[C@@H](OC(=O)CC(C)C)[C@H](C)O3)[C@H](N(C)C)[C@H]2O)[C@@H](CC=O)C[C@@H](C)[C@@H](O)/C=C/C=C/C[C@@H](C)OC(=O)C[C@H]1OC(C)=O [josamycin]
[1]
  Total # Differential Genes (95% confidence): 73

## CC[C@H]1OC(=O)[C@H](C)[C@@H](O[C@H]2C[C@@](C)(OC)[C@@H](O)[C@H](C)O2)[C@H](C)[C@@H](O[C@@H]2O[C@H](C)C[C@H](N(C)C)[C@H]2O)[C@](C)(O)C[C@@H](C)/C(=N\OCOCCOC)[C@H](C)[C@@H](O)[C@]1(C)O [roxithromycin]
[2]
  Total # Differential Genes (95% confidence): 7
[1]
  Total # Differential Genes (95% confidence): 65
  FADS1 expression: differentially expressed

## CC[C@H]1OC(=O)[C@H](C)[C@@H](O[C@H]2C[C@@](C)(OC)[C@@H](O)[C@H](C)O2)[C@H](C)[C@@H](O[C@@H]2O[C@H](C)C[C@H](N(C)C)[C@H]2O)[C@](C)(OC)C[C@@H](C)C(=O)[C@H](C)[C@@H](O)[C@]1(C)O [clarithromycin]
[3]
  Number of differentially expressed genes also differential in response to indomethacin: 25
  Number of differentially expressed genes also differential in response to triacsin C: Forty-two
[2]
  Total # Differential Genes (95% confidence): 4
[1]
  Total # Differential Genes (95% confidence): 54
  FADS1 expression: differentially expressed
